Assay results: ChEMBL document CHEMBL5030528, “Xanthine Derivatives Reveal an Allosteric Binding Site in Methylenetetrahydrofolate Dehydrogenase 2 (MTHFD2)” (J Med Chem, 2021)
Activity calls are given as the source filed them. No cut-off for these calls is given here.

What was measured:
[1] = biological target: T1, Bifunctional methylenetetrahydrofolate dehydrogenase/cyclohydrolase, mitochondrial (Homo sapiens) (UniProt P13995); assay: Uncompetitive inhibition of C-terminal His-tagged human MTHFD2 (36 to 350 residues) expressed in insect cells assessed as decrease in Km by using varying levels of tetrahydrofolate as substrate by double-reciprocal plot analysis; settings: time 10.0 min
T1 sequence (whole entry): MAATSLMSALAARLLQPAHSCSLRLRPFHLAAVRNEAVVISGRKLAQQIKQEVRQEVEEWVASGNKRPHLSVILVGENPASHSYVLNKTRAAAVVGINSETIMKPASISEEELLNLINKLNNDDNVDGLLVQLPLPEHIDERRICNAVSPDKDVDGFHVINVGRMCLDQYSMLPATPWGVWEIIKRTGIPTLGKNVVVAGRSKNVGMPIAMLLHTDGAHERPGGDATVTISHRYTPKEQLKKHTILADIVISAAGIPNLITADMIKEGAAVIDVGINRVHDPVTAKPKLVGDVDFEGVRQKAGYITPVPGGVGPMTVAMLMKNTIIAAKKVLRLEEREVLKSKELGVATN

[2] = biological target: T1, Bifunctional methylenetetrahydrofolate dehydrogenase/cyclohydrolase, mitochondrial (Homo sapiens); assay: Uncompetitive inhibition of C-terminal His-tagged human MTHFD2 (36 to 350 residues) expressed in insect cells assessed as decrease in Vmax using varying levels of tetrahydrofolate as substrate by double-reciprocal plot analysis; settings: time 10.0 min

- inhibition [1]: Active
- inhibition [2]: Active
Structure (SMILES): Cc1cc(Nc2nc3c(c(=O)n(Cc4cc5c(Cl)cccc5[nH]4)c(=O)n3C)n2C)nc(CCC(=O)O)n1
